Experimental data published in the CATMoS acute toxicity set (Mansouri et al. 2021).

Assay: GHS categories as the set defines them, by LD50: 1 up to 5, 2 up to 50, 3 up to 300, 4 up to 2000, 5 above 2000 mg/kg
Details: rat; in vivo; po

SMILES	GHS category
CN(SN(C)C(=O)Oc1ccc(C(C)(C)c2ccc(OC(=O)N(C)SN(C)C(=O)ON=C3CSCCS3)cc2)cc1)C(=O)ON=C1CSCCS1	4
CCOC[C@H]1CO[C@@](Cn2cncn2)(c2cc3cc(Cl)cc(Cl)c3o2)O1	4
NC[C@H]1O[C@H](O[C@H]2[C@H](O)[C@@H](O[C@H]3O[C@H](CO)[C@@H](O)[C@H](N)[C@H]3O)[C@H](N)C[C@@H]2N)[C@H](N)[C@@H](O)[C@@H]1O	5
CCN(CCO)N=O	5
CCOc1ccc(C(C)(C)COCc2cccc(Oc3ccccc3)c2)cc1	5
CCSCCO	5
O=C(c1ccc(Cl)cc1)N1CCN=C1c1ccccc1	4
CC1(C)S[C@@H]2[C@H](N3C(=O)C(c4ccccc4)NC3(C)C)C(=O)N2[C@H]1C(=O)O (stereo not given in full)	5
CN[C@@H]1[C@H](O)[C@H](NC)[C@H]2O[C@@]3(O)C(=O)C[C@@H](C)O[C@H]3O[C@@H]2[C@H]1O	5
CC(C)(C1CCC(O)CC1)C1CCC(O)CC1 (stereo not given)	5
c1ccc([I+]c2ccccc2)cc1	4
CCCCC(CC)C1NC(=O)N(SC(Cl)(Cl)Cl)C1=O (stereo not given)	4
CCCCCCCc1ccc(O)cc1	5
CC(=O)N(C)C(=O)Oc1cccc2c1OC(C)(C(C)(C)C)O2 (stereo not given)	4
COC(=O)C(C=O)c1ccccc1 (stereo not given)	4
C=CC(=O)OCCCCOc1ccc(C(=O)Oc2ccc(OC(=O)c3ccc(OCCCCOC(=O)C=C)cc3)c(C)c2)cc1	5
CCC1COC(Cn2cncn2)(c2cc3ccccc3o2)O1 (stereo not given)	4
CCC1Nc2cc(Cl)c(S(N)(=O)=O)cc2S(=O)(=O)N1 (stereo not given)	5
CS(=O)(=O)OC[C@@H](OS(C)(=O)=O)[C@@H](O)[C@H](O)[C@@H](COS(C)(=O)=O)OS(C)(=O)=O	5
CCOC(=O)c1ccccc1OC(N)=O	5
CCN(CC)CCC1=NC(=C2C=CC(=O)C=C2)NO1	5
CCCCCCCCCCCCCCCCCCCCO	5
O=C(NC(=O)c1c(F)cccc1F)Nc1ccc(Oc2ccc(C(F)(F)F)cc2Cl)cc1F	5
CC1(C)S[C@@H]2[C@H](NC(=O)C(c3ccccc3)S(=O)(=O)O)C(=O)N2[C@H]1C(=O)O (stereo not given in full)	5
C[C@@H]1O[C@@H]1P(=O)(O)O	5
CCCc1c(OCc2cccn3c(=O)c(-c4nn[nH]n4)cnc23)ccc(C(C)=O)c1O	5
CC(C)=CCN(CC=C(C)C)CCC(C#N)(c1ccc2ccccc2c1)C(C)C (stereo not given)	4

SMILES	GHS category
CCCCCCOc1ccc(-c2ccc(C#N)cc2)cc1	5
Cc1ccc(Nc2ccc(Nc3ccc(C)cc3S(=O)(=O)O)c3c2C(=O)c2c(O)ccc(O)c2C3=O)c(S(=O)(=O)O)c1	5
CO/N=C(/C(=O)N[C@@H]1C(=O)N2C(C(=O)OCOC(=O)C(C)(C)C)=C(C)CS[C@H]12)c1csc(N)n1	5
CCN(CCCSc1nnnn1C)C(=O)C1CCCC1	4
O=c1nc2nc[nH]n2c(COCc2ccccc2)c1Cc1ccc(-c2ccccc2-c2nn[nH]n2)cc1	4
Cc1c(S(C)(=O)=O)ccc(C(=O)O)c1Cl	5
CCCCCCCCCCCCCCCCCCCCCC(=O)O	5
CC(C)c1ccc(C(C)C)cc1	5
NC(=O)OCC(COC(N)=O)c1ccccc1	5
C[Si](C)(C)O[Si](C)(C)O[Si](C)(C)C	5
CO[C@@]1(NC(=O)Cc2cccs2)C(=O)N2C(C(=O)O)=C(COC(N)=O)CS[C@@H]21	5
O=S(=O)(O)c1ccc2c(c1)-c1nc-2nc2[nH]c(nc3nc(nc4[nH]c(n1)c1ccc(S(=O)(=O)O)cc41)-c1ccc(S(=O)(=O)O)cc1-3)c1ccc(S(=O)(=O)Nc3ccc(S(=O)(=O)CCO)cc3)cc21	5
O=[N+]([O-])c1ccc2c(c1)COP(=S)(N1CCOCC1)O2 (stereo not given)	3
C[N+](C)(C)CC(O)CC(=O)[O-] (stereo not given)	5
CN1CC(c2ccn(C)n2)CC2c3cccc4[nH]cc(c34)CC21 (stereo not given)	4
O=C(O)CSCC(=O)NC1CCSC1=O (stereo not given)	5
CCCCN(CCCC)C(=S)SCSC(=S)N(CCCC)CCCC	5
CS(=O)(=O)c1ccc(F)c(C(=O)O)c1	5
Cc1nn(C)c(O)c1C(=O)c1ccc(C(F)(F)F)cc1S(C)(=O)=O	5
O=C1OCC[C@@H]1O	5
COc1nc(C)nc(=NC(O)=NS(=O)(=O)c2ccccc2C(=O)O)[nH]1	5
CCCCNC1CC(C)(C)NC(C)(C)C1	4
CC1=C(C(=O)O)N2C(=O)[C@@H](NC(=O)[C@H](N)c3ccc(O)cc3)[C@H]2SC1	5
CC(=O)C(N=Nc1cc(C(=O)Nc2cc(Cl)ccc2C)ccc1Cl)C(=O)Nc1cc(C)c(NC(=O)C(N=Nc2cc(C(=O)Nc3cc(Cl)ccc3C)ccc2Cl)C(C)=O)cc1C (stereo not given)	5
COCC(=O)N(c1c(C)cccc1C)[C@H](C)C(=O)OC	4
C=COCCCCCCCCCCCCCCCCCC	5
CN1OCC(=Cc2cc(C(C)(C)C)c(O)c(C(C)(C)C)c2)C1=O	4

SMILES	GHS category
O=C1c2ccccc2C2=Nc3cccc4cccc(c34)N12	5
CCC(=O)OCC(=O)OC(C)C1CCCC(C)(C)C1 (stereo not given)	5
CC(C)C1CCCCC1	5
CCOc1ccccc1C(=N)N	4
CCOC(=O)CCNc1ccccn1	5
CC(F)(Cl)Cl	5
CC(C)Cc1ccc(OP(=O)(Oc2ccc(CC(C)C)cc2)Oc2ccc(CC(C)C)cc2)cc1	5
CC(C)N1C2CCC1CC(=O)C2	3
C=C(C)CCCC(C)CCOC(C)=O (stereo not given)	5
CCCc1c(Cc2ccc(-c3ccccc3-c3nn[nH]n3)cc2)c(=S)nc2nc[nH]n12	4
O=C(Nc1cccc2c(=O)c3c(ccc4c5cc(NC(=O)c6ccccc6)c6c(=O)c7ccccc7c(=O)c6c5[nH]c43)c(=O)c12)c1ccccc1	5
O=C1C=CC(=O)N1c1ccc(SSc2ccc(N3C(=O)C=CC3=O)cc2)cc1	5
CN1CC(c2ccn(-c3ccccc3)n2)CC2c3cccc4[nH]cc(c34)CC21 (stereo not given)	4
CCc1ccc(-n2nnnc2CSCCC(=O)N(CC)CC)cc1	4
C[C@H]1O[C@]2(CS1)CN1CCC2CC1	3
C=CCCCCCCCCOC(C)=O	5
c1ccc(Nc2ccc(NC3CCCCC3)cc2)cc1	5
CCCCCCCC(=O)OCCC	5
CN1C2=CC(=O)C(=NNC(N)=O)C=C2CC1S(=O)(=O)O (stereo not given)	5
CC(CC(=O)OCCN1C(C)(C)CC(OC(=O)CC(C)CC(C)(C)C)CC1(C)C)CC(C)(C)C (stereo not given)	5
C1C2CC3CC1CC(C2)C3	5
NCC1(CC(=O)O)CCCCC1	5
CCOC(=O)NC1CCCN(c2nc(N)c3cc(OC)c(OC)cc3n2)C1 (stereo not given)	4
COc1cc(OC)nc(NC(=O)NS(=O)(=O)c2ncccc2C(=O)N(C)C)n1	5
O=C1CCc2c(cccc2OCCCN2CCC(O)(c3ccccc3)CC2)N1	4
CCn1c2ccccc2c2ccccc21	5
